We go through 2 molecules from patent US20060110456A1, “Method for biocidal and/or biostatic treatment and compositions therefor” (NATIONAL UNIVERSITY OF SINGAPORE, priority 2004, published 2006).

In brackets after ≈: the same amount, converted by molar mass. Entries after “also recorded” stand apart in the source; their conditions may differ.

Data set [1] has as its system Balanus amphitrite stage II naupliar larvae. The conditions noted are these: for LD50: barnacle nauplii, 22 to 24 hours, concentration that caused 50% mortality. On the procedure:
(§1) Pharmaceuticals from the respective manufacturers were treated in the following way. A pill containing a known amount of active ingredient (as stated in product information) was ground in a mortar and pestle and a suspension of 2 mg ml^−1 generated in de-ionized water. This stock solution is stored at −20° C. in 4 ml amber screw cap vials. For the bioassays, 250 ul of stock solution is added to 10 ml of 1 um filtered seawater. This suspension was then sonicated for 10 minutes. Serial dilutions of this 50 μg ml^−1 seawater solution, or suspension, with seawater was done to generate the required range of concentrations.
Stage II naupliar larvae used in tests were obtained from Balanus amphitrite adults collected from inter-tidal rock walls at Kranji mangrove, Singapore. Larvae were collected from a container of adults by attraction to a point source of light and transferred to 500 ml of fresh seawater. Next, larvae were re-concentrated with a fiber optic light and added to assays.
Duplicate assays were conducted in 2 ml micro-centrifuge tubes (Axygen MCT-200-C) in 1.5 ml of filtered seawater for 22 to 24 hours. The assays were repeated for confirmation. There were four controls (vehicle only, 0 μg ml^−1), and 2 tubes of each for each test concentration. The assay was initiated by addition of barnacle nauplii in 50 to 100 μl of seawater.
After 22 to 24 hours of incubation at 25-27° C., solutions containing test animals were transferred to a Bogorov tray and scored as living or dead. Moribund larvae were scored as dead. Results were confirmed by repeating the assay. […] If data were not appropriate for probit analysis, the LC50 was estimated from graphed data.

For data set [2], the system named is barnacle nauplii. Briefly: Toxicity of drugs under different light conditions and over time (stability in seawater). The class given is in vivo, Balanus amphitrite. Conditions: 25 ug ml^−1 seawater suspension; for Change in toxicity on ageing in seawater, 12L:12D condition: 12 h light and 12 h dark. The procedure: Preliminary experiments were carried out to examine the chemical stability of the drugs. 25 ug ml^−1 seawater suspensions of the drugs were prepared, in 3 replicates per condition, 3 replicate tubes containing 15 ml per test tube per prepared for each treatment type. The treatments consisted of: • i. Dark condition: tubes were wrapped in aluminium foil and kept in the dark at all times • ii. 12L:12D condition, where the tubes were subject incubated in a plant growth chamber with light regime of 12 hours light and 12 hours dark. • iii. UV treated tubes were subject to UV for half an hour. […] Sets (1) & (2) were tested at week 0, 1, 2 and after 4 weeks. “UV” set is only assayed after UV treatment. […] Effect of UV

Data set [3] concerns biofilm bacteria (strains 4, 9, 14, 20, 27, 28). The experiment in a line: Effect of pharmaceuticals on adhesion of bacteria to plastic / biofilm formation on NTC and TC plates. It counts as cell-based, marine bacteria isolated from Singapore fouling communities. The conditions noted are these: for Effect on formation of bacterial biofilms on NTC and TC plates: 25 ug ml−1, NTC = untreated polystyrene, TC = tissue-culture treated, strains 4, 9, 14, 20, 27, 28; for Prevention of formation of biofilm: crude rank, best (1) to worst (8). The procedure: Commercial forms of pharmaceuticals were used as previously described. […] These samples were sonicated for at least 1 min and these fine suspensions were used as initial stock solutions.
For studies of bacterial adhesion, the pharmaceuticals were first sterilized by soaking in absolute alcohol (Merck) for half an hour. Ethanol was removed by air-drying with air passed through 0.25 μm pore size syringe filter (Sartorius, Germany). Stock solutions were concentrations of 100 μg ml−1 in SDI.
The effect of pharmaceuticals on bacterial adhesion was analyzed using a modified microplate method adapted from Shea and Williamson (1990). This method employs a combination of staining attached bacteria with crystal violet, releasing the stain with sodium desoxycholate, and measuring the resulting absorbance of the crystal violet.
Detailed results for six selected strains are presented here: strains 4, 9, 14, 20, 27, 28. The bacterial strains were grown in Marine Broth (Pronadisa, Spain) overnight, in the dark, at 28° C. on a rotary shaker (150 rpm) in 5 ml centrifuge tubes (Falcon). Cells were harvested by centrifugation (1500×g, 10 min) and resuspended in sterile seawater (SSW). SSW was prepared by filtering seawater through a 0.2 μm pore size filter (Sartorius) followed by autoclaving. The cells were centrifuged and resuspended once more in SSW. The concentration of resuspended cells was adjusted to A600=1.0 using a spectrophotometer (Beckman DU530, USA).
Flat bottom 96 well polystyrene (hydrophobic, Falcon 351172) (=NTC) and tissue-culture treated polystyrene (hydrophilic, Falcon 353072) (=TC) microplates were used in the analyses. Each test was performed in triplicate. Two sets of experiments were conducted. […] For the control and blank wells, 25 ul of SDI were added. For wells containing pharmaceuticals, 25 ul of the respective pharmaceutical at a concentration of 100 ug ml−1 were added. This was immediately followed by the addition of 75 ul of bacterial suspension. To blanks were added 75 ul of SSW.
The bacterial cells in suspension were allowed to attach for 2 h at 28° C. Unattached cells were removed by aspiration using a plate washer (Tecan, Austria) and wells were rinsed three times with 200 ul of SSW each time. The attached cells were stained with 200 ul of crystal violet solution (0.1% w/v in deionized water) in each well for 5 min. After removing the stain using the plate washer, the wells were rinsed twice with 300 ul of SDI each time. Sodium desoxycholate (200 ul) solution (2% w/v in deionized water) was added to each well to extract the crystal violet from the attached stained cells for 10 min. The absorbance of the crystal violet was read at 590 nm using a microplate reader (Sunrise, Tecan, Austria).
Results of the adhesion assay were obtained by the difference in absorbance readings between wells containing bacterial cells and the mean of absorbance of those containing the SSW only. The effect of the pharmaceuticals on bacterial adhesion was determined by the examining the differences in absorbance between the wells containing the pharmaceuticals+bacteria and the bacteria. The significance was compared using T-test.

The conditions of data set [4]: in words; cited from earlier work.
The test system of data set [5] is Balanus amphitrite cyprids. The experiment in a line: whole plant or invertebrate. Conditions: for Prevention of settlement of barnacle cyprids: crude rank, best (1) to worst (8). The procedure:
as §1
This method is now standard practice for many antifouling screening of novel compounds.
Barnacle larvae from field-collected adults were reared on an algal mixture of 1:2:2 v/v of Rhodomonas salina, Tetraselmis suecica and Chaetoceros muelleri at 25° C., at approximately 5×10^5 cells per ml density. On this regime, larvae metamorphose to cyprids in 5 days.
Test solutions were made up to twice the required final concentration. 1 ml of test solution was added into each well, and cyprids were transferred into each well in 1 ml of seawater. Assays were done in triplicate. After 24 hours, larvae that had attached and metamorphosed were enumerated and the result expressed as percentage settlement. Larvae not attached were scored as not settled.
The Therapeutic Ratio, or LC50/EC50, is a way of assessing the effectiveness of the compound in relation to its toxicity. […] LC50 and EC50 estimates and the therapeutic ratio should be considered as working values providing an estimation of potency, rather than as absolutes.

In turn, `CN[C@H]1CC[C@@H](c2ccc(Cl)c(Cl)c2)c2ccccc21.Cl` [ZLT, sertraline hydrochloride] gave an LD50 in data set [1] of 1.58 ng/mL. The “Toxicity to barnacle nauplii” value in data set [1] (crude rank, best (1) to worst (8)) amounted to 1. In data set [2] (after 4 weeks), the “Change in toxicity on ageing in seawater, 12L:12D condition” value is “not altered by any of the treatments applied” and the “Change in toxicity on ageing in seawater, dark condition” value was “not altered by any of the treatments applied”. Also, the “Effect of UV on drug toxicity to barnacle nauplii” value in data set [2] (UV for half an hour) was “not altered by any of the treatments applied”. Besides, the “Effect on formation of bacterial biofilms on NTC and TC plates” value in data set [3] (hydrochloride) is recorded as “Biofilm formation was reduced for most strains except strain 14; also recorded: reduction of biofilm growth for most strains (except strain 14) on NTC, but only for strain 28 on TC”. Also, the “Prevention of formation of biofilm” value in data set [3] is reported as 3. In addition, the Solubility entry in data set [4] was “slightly soluble in water”. In data set [5] (barnacle cyprids, 24 hours, concentration that caused 50% settlement inhibition), the ED50 is 501.85 ng/mL. The “Prevention of settlement of barnacle cyprids” value in data set [5] is 6.
The molecule `Cc1cc2c(s1)Nc1ccccc1N=C2N1CCN(C)CC1` [ZPX, olanzapine] came in with an LD50 in data set [1] of 505.82 ng/mL. Besides, in data set [2] (after 4 weeks), the “Change in toxicity on ageing in seawater, 12L:12D condition” value is listed as “marked decrease in toxicity”. Besides, in data set [3], the “Effect on formation of bacterial biofilms on NTC and TC plates” value is “prevented biofilm formation for all 6 strains in the NTC plates, and slightly reduced the biofilm formation in strains 4 on the TC plates; also recorded: marked reduction of biofilm growth for all strains on NTC, but only a slight reduction for strain 4 on TC”; the “Prevention of formation of biofilm” value worked out at 1. Besides, in data set [4], the Solubility entry is recorded as “practically insoluble in water”. Further, the IC50 in data set [5] (Amphibalanus amphitrite, 24 h, read-out: ED50) is 2.31 ng/mL (≈ 7.39 nM). Further, the “Prevention of settlement of barnacle cyprids” value in data set [5] is on record as 1. Further, in data set [5] (in words), the “Effect on settlement of cyprids” value was “at concentrations less than 1 ug ml^−1, the cyprids were not killed but were not able to settle; also recorded: prevented the settlement of cyprids”. The Mortality of cyprids result in data set [5] (settlement bioassay wells) was “not very different from the control”.
